Source: PMC6934184, “Selective DNA-PKcs inhibition extends the therapeutic index of localized radiotherapy and chemotherapy” (The Journal of Clinical Investigation, 2019)

Target: T1, CSNK2A2 (CK2 alpha 2) (Homo sapiens, UniProt P19784)
T1 construct: purchased Thermo Fisher Scientific (Life Technologies) SelectScreen
Test: SelectScreen Z'LYTE
Format: biochemical
Method in brief: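 SelectScreen broad panel; activity (Z'LYTE, Adapta) plus binding formats. ATP: Km app for CSF1R Z'LYTE; 10 for CAMK1 Adapta. Readout = % per kinase.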

T1 sequence (P19784 whole entry): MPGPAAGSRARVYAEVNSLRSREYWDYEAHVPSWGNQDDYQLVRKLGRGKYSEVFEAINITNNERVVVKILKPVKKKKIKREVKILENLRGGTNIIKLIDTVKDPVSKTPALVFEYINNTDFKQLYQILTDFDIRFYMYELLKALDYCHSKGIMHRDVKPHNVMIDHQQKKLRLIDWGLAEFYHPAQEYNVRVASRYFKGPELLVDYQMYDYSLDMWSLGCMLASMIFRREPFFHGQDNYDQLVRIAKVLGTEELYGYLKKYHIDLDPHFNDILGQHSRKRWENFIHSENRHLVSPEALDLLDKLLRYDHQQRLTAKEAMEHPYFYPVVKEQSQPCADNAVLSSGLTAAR

`CN(C(=O)CN1CCOCC1)c1ccc2sc3c(-c4cccc5c(=O)cc(N6CC7CCC(C6)O7)oc45)cccc3c2c1` [NU5455] gave an inhibition at 1 µM of 8.7%.
